What all share (assay type): cell-based
One assay deals with Wnt activity. Kind of assay: Wnt activity screening assay, Sp5-Luc reporter gene in SW480 cells. As to conditions: Homo sapiens; for EC50: Sp5-Luc reporter, SW480 cells, overnight incubation; for inhibition at 10 µM: SW480, read-out: percent inhibition at 10 μM. Put shortly: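 Read-out is BrightGlo luminescence, normalized to DMSO-treated cells and fitted by four-parameter variable-slope regression for EC50. Reporter cells: SW480 colon carcinoma carrying a stable lentiviral Sp5-Luc construct with eight TCF/LEF sites, seeded 4,000/well in 1% FBS, incubated overnight at 37° C.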

The next assay relates to SW480 colon cancer cells. Description: Cell viability assay (CellTiter-Blue) in SW480 colon cancer cells. As to conditions: Homo sapiens; for EC50: 96 h, SW480 cell viability, four days, CellTiter-Blue; for inhibition at 10 µM: SW480, read-out: percent inhibition at 10 μM. Put shortly:
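Fluorescence from resazurin reduced to resorufin by metabolically active cells was the read-out, taken after ~3 h with CellTiter-Blue.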

The subject of assay [1] is primary human fibroblasts derived from IPF patients (LL29 cells). Kind of assay: Inhibition of the fibrotic process: αSMA staining in TGF-β1 treated LL29 fibroblasts. Particulars: Fibroblast; for EC50: 96 h, LL29 cells, TGF-β1 20 ng/mL, 4 days, % αSMA positive cells; for inhibition at 10 µM: read-out: percent inhibition at 10 μM. In outline:
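Read-out after 4-day incubation: αSMA staining with 1 μM SYTOX green nuclear counterstain (30 min, room temperature). Cells were LL29 primary fibroblasts from IPF patients, in 1% FBS F12, exposed to TGF-β1 with test compound, referenced to TGF-β1/DMSO control wells.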

The subject of assay [2] is primary human mesenchymal stem cells (hMSCs). Description: Induction of chondrogenesis in hMSCs (nodule count, Rhodamine B/Nile Red). Particulars: 6 days; for Emax: relative to TGF-β3 (10 ng/mL) positive control, read-out: Max. Activity as % TGF-β3 activity; for EC50: concentration required to induce 50% levels of chondrogenesis vs TGF-β3, read-out: Conc (nM) of 50% TGF-β3 activity. The source says:
Representative compounds were screened using primary human mesenchymal stem cells (hMSCs) to determine their ability to induce chondrogenesis (process by which cartilage is developed).
Primary human mesenchymal stem cells (hMSCs) were purchased from Lonza (Walkersville, Md.) and expanded in Mesenchymal Stem Cell Growth Media (Lonza). Cells between passage 3 and 6 were used for the experiments.
To image chondrogenic nodules, the cells were fixed using 4% formaldehyde (Electron Microscopy Sciences), and stained with 2 μg/mL Rhodamine B (Sigma-Aldrich) and 20 μM Nile Red (Sigma-Aldrich) [Johnson K., et.al, A Stem Cell-Based Approach to Cartilage Repair, Science, (2012). […] Number of nodules in each well was normalized to the average of 3 DMSO treated wells on the same plate using Excel (Microsoft Inc.). The normalized averages (fold change over DMSO) of 3 replicate wells for each compound concentration were calculated. Due to solubility limitations of some of the compounds, curve fitting was incomplete leading to inaccurate EC50 determinations.
Using TGF-β3 as a positive control, the concentration of representative compounds required to induce 50% levels of chondrogenesis is reported. In addition, the maximum activity of each compound and the respective dose that each compound reached maximum chondrogenesis activity is reported.

A further assay concerns IL-6. Kind of assay: IL-6 inhibition in LPS-stimulated THP-1 cells (HTRF). As to conditions: Homo sapiens; for inhibition at 10 µM: THP-1, read-out: percent inhibition at 10 μM; for EC50: THP-1 cells, LPS 500 ng/mL, 22 hours, IL6 HTRF. In outline: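 After 24 h in 1% FBS medium, cells had compound 2 h before 500 ng/mL LPS, then 22 h more at 37 °C. DMSO-normalized HTRF signal (665/620 nm ratio, anti-IL-6 antibody pair) was fitted with a variable-slope four-parameter model to give EC50.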
(In TR-FRET formats the signal depends on donor and acceptor labels being close together.)

SMILES strings stand for the structures.

For orientation: inhibition means how much of the control response was suppressed. For the compound `CC(C)Nc1cncc(-c2cc3c(-c4cc5c(-c6cc(F)cc(CNS(C)(=O)=O)c6)cncc5[nH]4)n[nH]c3cn2)c1` [Compound 488, N-(3-Fluoro-5-(2-(5-(5-(isopropylamino)pyridin-3-yl)-1H-pyrazolo[3,4-c]pyridin-3-yl)-1H-pyrrolo[2,3-c]pyridin-4-yl)benzyl)methanesulfonamide], the EC50 in the assay on Wnt activity was 4.28 µM; in the assay on SW480 colon cancer cells, greater than 10 µM; in assay [1] it was 2.59 µM; in the assay with IL-6 it was greater than 10 µM. For the same compound, the inhibition at 10 µM with SW480 colon cancer cells is 11%; with IL-6 it was 46.8%. Further, in assay [2], the Emax was 17%.
Take `CC(C)CC(=O)Nc1cncc(-c2cc3c(-c4cc5c(-c6cc(F)cc(CNS(C)(=O)=O)c6)cncc5[nH]4)n[nH]c3cn2)c1` [Compound 478, N-(5-(3-(4-(3-Fluoro-5-(methylsulfonamidomethyl)phenyl)-1H-pyrrolo[2,3-c]pyridin-2-yl)-1H-pyrazolo[3,4-c]pyridin-5-yl)pyridin-3-yl)-3-methylbutanamide]: the inhibition at 10 µM in the assay with Wnt activity came out at 18.8%; in the assay on SW480 colon cancer cells, 4.1%; in assay [1], 37.6%; in the assay with IL-6, 18.9%. Further, the EC50 (in the assay with Wnt activity; in the assay with SW480 colon cancer cells; in assay [1]; in the assay with IL-6) was greater than 10 µM in each case. Moreover, the Emax in assay [2] was 24%.
For `CC(C)C(=O)Nc1cncc(-c2cc3c(-c4cc5c(-c6cccc(F)c6)cncc5[nH]4)n[nH]c3cn2)c1` [Compound 9, N-(5-(3-(4-(3-Fluorophenyl)-1H-pyrrolo[2,3-c]pyridin-2-yl)-1H-pyrazolo[3,4-c]pyridin-5-yl)pyridin-3-yl)isobutyramide], the EC50 turned out to be 1.81 µM in the assay on Wnt activity, 4.34 µM in the assay on SW480 colon cancer cells, 1.79 µM in assay [1] and 8.26 µM with IL-6. In assay [2], the Emax came to 42%.
Take `c1cncc(-c2cc3c(-c4cc5c(-c6cccnc6)cncc5[nH]4)n[nH]c3cn2)c1` [Compound 88, 5-(Pyridin-3-yl)-3-(4-(pyridin-3-yl)-1H-pyrrolo[2,3-c]pyridin-2-yl)-1H-pyrazolo[3,4-c]pyridine]: the EC50 was 1.34 µM with Wnt activity; greater than 10 µM with SW480 colon cancer cells; greater than 10 µM in assay [1]; 100 nM in assay [2]; greater than 10 µM in the assay on IL-6. The values for the inhibition at 10 µM (with SW480 colon cancer cells; in assay [1]; with IL-6) were 37.4%, 82.9% and 36.6%, respectively. The Emax in assay [2] was 76%.
On to `CS(=O)(=O)NCc1cc(F)cc(-c2cncc3[nH]c(-c4n[nH]c5cnc(-c6cncc(CN7CCCC7)c6)cc45)cc23)c1` [Compound 490, N-(3-Fluoro-5-(2-(5-(5-(pyrrolidin-1-ylmethyl)pyridin-3-yl)-1H-pyrazolo[3,4-c]pyridin-3-yl)-1H-pyrrolo[2,3-c]pyridin-4-yl)benzyl)methanesulfonamide], for which the inhibition at 10 µM in the assay on Wnt activity turned out to be 8.5%; with SW480 colon cancer cells, 17.4%; in assay [1], 21.4%; with IL-6, 0%. In addition, the EC50 (in the assay on Wnt activity; with SW480 colon cancer cells; in assay [1]; in the assay with IL-6) was greater than 10 µM throughout. In assay [2], the Emax is 8%.
For `CCNCc1cncc(-c2cc3c(-c4cc5c(-c6cccnc6)cncc5[nH]4)n[nH]c3cn2)c1` [Compound 90, N-((5-(3-(4-(Pyridin-3-yl)-1H-pyrrolo[2,3-c]pyridin-2-yl)-1H-pyrazolo[3,4-c]pyridin-5-yl)pyridin-3-yl)methyl)ethanamine], the EC50 in the assay with Wnt activity is 3.73 µM; in the assay with SW480 colon cancer cells, greater than 10 µM; in assay [1], greater than 10 µM; in assay [2] it was 10 nM; with IL-6, 1.06 µM. For the same compound, the inhibition at 10 µM is 13% with SW480 colon cancer cells and 0% in assay [1]. Besides, the Emax in assay [2] was 68%.
For `Nc1cncc(-c2cc3c(-c4cc5c(-c6ccncc6)cncc5[nH]4)n[nH]c3cn2)c1` [Compound 115, 5-(3-(4-(Pyridin-4-yl)-1H-pyrrolo[2,3-c]pyridin-2-yl)-1H-pyrazolo[3,4-c]pyridin-5-yl)pyridin-3-amine], the inhibition at 10 µM is 14.2% in the assay on Wnt activity, 22% with SW480 colon cancer cells and 4.3% with IL-6. For the same compound, the EC50 with Wnt activity was greater than 10 µM; in the assay with SW480 colon cancer cells it was greater than 10 µM; in assay [1] it was 3.74 µM; in assay [2], 10 nM; in the assay with IL-6, greater than 10 µM. The Emax in assay [2] came to 52%.
Turning to `Fc1ccc(-c2cncc3[nH]c(-c4n[nH]c5cnc(-c6cncnc6)cc45)cc23)cc1` [Compound 55, 3-(4-(4-Fluorophenyl)-1H-pyrrolo[2,3-c]pyridin-2-yl)-5-(pyrimidin-5-yl)-1H-pyrazolo[3,4-c]pyridine], the EC50 with Wnt activity was 0.555 µM; in the assay with SW480 colon cancer cells, 0.264 µM; in assay [1], greater than 10 µM; in assay [2], 900 nM; in the assay on IL-6, 0.975 µM. The inhibition at 10 µM in assay [1] stood at 56.4%. Besides, the Emax in assay [2] worked out at 81%.
In the case of `Nc1cncc(-c2cc3c(-c4cc5c(N6CCCCC6)cncc5[nH]4)n[nH]c3cn2)c1` [Compound 171, 5-(3-(4-(Piperidin-1-yl)-1H-pyrrolo[2,3-c]pyridin-2-yl)-1H-pyrazolo[3,4-c]pyridin-5-yl)pyridin-3-amine], the EC50 with Wnt activity came out at 2.96 µM; in the assay on SW480 colon cancer cells, 5.1 µM; in assay [1] it was 2.64 µM; in assay [2], 30 nM; in the assay with IL-6, 1.35 µM. The Emax in assay [2] was 94%.
On to `CS(=O)(=O)NCc1cc(F)cc(-c2cncc3[nH]c(-c4n[nH]c5cnc(-c6cncc(NC(=O)C7CCC7)c6)cc45)cc23)c1` [Compound 497, N-(5-(3-(4-(3-Fluoro-5-(methylsulfonamidomethyl)phenyl)-1H-pyrrolo[2,3-c]pyridin-2-yl)-1H-pyrazolo[3,4-c]pyridin-5-yl)pyridin-3-yl)cyclobutanecarboxamide], for which the inhibition at 10 µM turned out to be 6.4% with Wnt activity, 14.1% in the assay with SW480 colon cancer cells, 27.8% in assay [1] and 0% in the assay with IL-6. Further, the EC50 (in the assay with Wnt activity; in the assay with SW480 colon cancer cells; in assay [1]; with IL-6) was greater than 10 µM throughout. For the same compound, in assay [2], the Emax stood at 15%.
Regarding `CN(C)Cc1cncc(-c2cc3c(-c4cc5c(-c6ccccc6F)cncc5[nH]4)n[nH]c3cn2)c1` [Compound 69, 1-(5-(3-(4-(2-Fluorophenyl)-1H-pyrrolo[2,3-c]pyridin-2-yl)-1H-pyrazolo[3,4-c]pyridin-5-yl)pyridin-3-yl)-N,N-dimethylmethanamine], the inhibition at 10 µM with Wnt activity is 49.2%; in the assay with IL-6 it was 24.7%. Also, the EC50 with Wnt activity is greater than 10 µM; in the assay on SW480 colon cancer cells, 6.31 µM; in assay [1] it was 9.72 µM; in assay [2] it was 2700 nM; in the assay with IL-6, greater than 10 µM. Also, in assay [2], the Emax is 54%.
Regarding `Fc1cccc(-c2cncc3[nH]c(-c4n[nH]c5cnc(-c6cncc(CN7CCCC7)c6)cc45)cc23)c1` [Compound 14, 3-(4-(3-Fluorophenyl)-1H-pyrrolo[2,3-c]pyridin-2-yl)-5-(5-(pyrrolidin-1-ylmethyl)pyridin-3-yl)-1H-pyrazolo[3,4-c]pyridine], the EC50 in the assay with Wnt activity was 3.97 µM; in the assay on SW480 colon cancer cells it was 5.69 µM; in assay [1] it was 3.54 µM; in assay [2], 100 nM; with IL-6 it was greater than 10 µM. In assay [2], the Emax was determined as 81%. Besides, the inhibition at 10 µM in the assay on IL-6 came to 48.2%.
Turning to `Fc1cccc(-c2cncc3[nH]c(-c4n[nH]c5cnc(-c6cccnc6)cc45)cc23)c1` [Compound 4, 3-(4-(3-Fluorophenyl)-1H-pyrrolo[2,3-c]pyridin-2-yl)-5-(pyridin-3-yl)-1H-pyrazolo[3,4-c]pyridine], the EC50 in the assay on Wnt activity is 0.89 µM; in the assay with SW480 colon cancer cells, 0.734 µM; in assay [1], 0.211 µM; in assay [2], 2700 nM; in the assay with IL-6, greater than 10 µM. Also, in assay [2], the Emax was determined as 64%. For the same compound, in the assay with IL-6, the inhibition at 10 µM came out at 26.8%.

The record behind these values is patent US10383861B2, “3-(1H-pyrrolo[2,3-C]pyridin-2-yl)-1H-pyrazolo[3,4-C]pyridines and therapeutic uses thereof” (Samumed, LLC, priority 2015, dated 2019).
